Calls of active or inactive are those of the source. No stated cut-off is given here; in the data, actives have a measured IC50 and inactives only a lower limit.

For the assay, the target named is Envelope glycoprotein gp160 (Human immunodeficiency virus 1, UniProt Q6QLK5). The experiment in a line: cell-free HIV fusion peptide-binding blockers – biochemical, uHTS, fluorescence dequenching, […] (AID 1986).
Envelope glycoprotein gp160, sequence (Q6QLK5 whole entry, the tested form may be a part): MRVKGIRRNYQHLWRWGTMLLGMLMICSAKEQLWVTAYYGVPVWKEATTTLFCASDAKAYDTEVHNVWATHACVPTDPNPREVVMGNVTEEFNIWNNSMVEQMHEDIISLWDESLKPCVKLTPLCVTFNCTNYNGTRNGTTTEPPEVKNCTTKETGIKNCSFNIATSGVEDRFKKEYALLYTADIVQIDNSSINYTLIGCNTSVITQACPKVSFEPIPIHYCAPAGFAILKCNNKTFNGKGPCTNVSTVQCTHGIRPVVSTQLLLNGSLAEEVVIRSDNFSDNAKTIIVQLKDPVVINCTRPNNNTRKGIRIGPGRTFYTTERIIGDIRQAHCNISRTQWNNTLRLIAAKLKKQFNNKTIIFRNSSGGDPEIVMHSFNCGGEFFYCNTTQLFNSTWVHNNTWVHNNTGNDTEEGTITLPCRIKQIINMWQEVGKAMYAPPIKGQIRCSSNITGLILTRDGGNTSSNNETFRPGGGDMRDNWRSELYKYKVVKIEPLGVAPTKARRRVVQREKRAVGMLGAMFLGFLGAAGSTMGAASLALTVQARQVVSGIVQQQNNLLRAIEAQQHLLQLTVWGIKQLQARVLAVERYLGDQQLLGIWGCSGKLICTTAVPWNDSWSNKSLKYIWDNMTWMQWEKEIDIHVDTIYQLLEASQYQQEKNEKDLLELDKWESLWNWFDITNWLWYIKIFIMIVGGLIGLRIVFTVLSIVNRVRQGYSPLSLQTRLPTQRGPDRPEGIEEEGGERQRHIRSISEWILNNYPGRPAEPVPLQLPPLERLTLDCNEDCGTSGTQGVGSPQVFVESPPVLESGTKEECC
Regarding `CCOc1ccc2nc(NC(=O)CSc3nc(O)c(C#N)c(-c4ccccc4)n3)sc2c1`, the 50% inhibitory concentration (IC50) (in general, the point on the concentration scale where inhibition reaches its midpoint) is 11.1 µM (active). The result for `O=C(NN1C(=O)/C(=C/c2ccc(O)cc2)SC1=S)c1ccccc1O` reads 23.6 µM (active). The result for `CCS(=O)(=O)C1=NSC2=NC(=O)/C(=C\c3ccc(OS(=O)(=O)c4ccccc4)c(OC)c3)C(=N)N21` reads 16.8 µM (active).

Source of the values: ChEMBL document CHEMBL1201862, “PubChem BioAssay data set” (2004).
